We go through 30 molecules from the supplement of paper PMC11127212.

Data set [1] in a line: collision cross section (TWIMS, N2) of ion [M-H]-; higher = larger gas-phase ion cross section. As to conditions: ionization: ESI negative; LC: HILIC, pH 9.0 ammonium acetate. On the procedure:
(§1)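 Reference standards (20-100 uM) were separated by HILIC UPLC (BEH HILIC, 45 °C): acidic pH 3.0 ammonium formate/formic acid for ESI+ and basic pH 9.0 ammonium acetate/ammonia for ESI-. They were analysed on a Synapt G2-Si traveling-wave IMS-QTOF with nitrogen drift gas (WH 30 V; WV 800 m/s in ESI+ and 1000 m/s in ESI-).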

The nature of data set [2]: collision cross section (TWIMS, N2) of ion [M+Na]+; higher = larger gas-phase ion cross section. As to conditions: ionization: ESI positive; LC: HILIC, pH 3.0 ammonium formate. The procedure: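 Reference standards (20-100 uM) were separated by HILIC UPLC (BEH HILIC, 45 °C): acidic pH 3.0 ammonium formate/formic acid for ESI+ and basic pH 9.0 ammonium acetate/ammonia for ESI-. They were analysed on a Synapt G2-Si traveling-wave IMS-QTOF with nitrogen drift gas (WH 30 V; WV 800 m/s in ESI+ and 1000 m/s in ESI-). CCS (TWCCSN2, Å2) was calibrated with Major Mix IMS/TOF and LockCCS leucine enkephalin; inter-day RSD was <1%.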

The nature of data set [3]: retention time on BEH HILIC column (20 min gradient, 0.4 mL/min); higher = later elution. Particulars: LC: HILIC. The procedure: as §1
The nature of data set [4]: collision cross section (TWIMS, N2) of ion [M+H]+; higher = larger gas-phase ion cross section. Particulars: ionization: ESI positive; LC: HILIC, pH 3.0 ammonium formate. On the procedure: as §1
The mark [5] stands for this setting: ionization: ESI negative, pH 9.0 ammonium acetate.
The mark [6] stands for this setting: ionization: ESI positive, pH 3.0 ammonium formate.

In the case of `O=C(O)/C=C(\CC(=O)O)C(=O)O` [trans-aconitic acid], the figures for the collision cross section in data set [1] and in data set [2] were 118.87 Å² and 138.79 Å², respectively. For the same molecule, the “retention time on BEH HILIC column” value in data set [3] (setting [5]) and in data set [3] (setting [6]) was 2.23 min in each case.
Consider `O=C(O)CCCCCCCC(=O)O` [Azelaic acid], for which the collision cross section in data set [1] is listed as 139.96 Å²; in data set [2], 145.99 Å². The figures for the “retention time on BEH HILIC column” value in data set [3] (setting [5]) and in data set [3] (setting [6]) were 0.8 min and 1 min, respectively.
As for `OC[C@H]1O[C@H](O[C@H]2[C@H](O)[C@H](O)[C@@H](O)O[C@@H]2CO)[C@H](O)[C@@H](O)[C@@H]1O` [D-maltose], the collision cross section in data set [1] was found to be 171.3 Å²; in data set [2], 175.45 Å². In addition, the “retention time on BEH HILIC column” value came out at 7.95 min in data set [3] (setting [5]) and 6.68 min in data set [3] (setting [6]).
As for `O=C(O)CCCC(=O)C(=O)O` [Oxoadipic acid], the collision cross section is reported as 128.96 Å² in data set [1] and 136.98 Å² in data set [2]. For the same molecule, the “retention time on BEH HILIC column” value came to 5.03 min in data set [3] (setting [5]) and 4.84 min in data set [3] (setting [6]).
For `O=P(O)(O)OC[C@H]1OC(O)[C@H](O)[C@@H](O)[C@@H]1O` (stereo not given in full) [Glucose 6-phosphate], the collision cross section in data set [1] is listed as 148.86 Å²; in data set [2], 154.07 Å². Besides, the “retention time on BEH HILIC column” value in data set [3] (setting [5]) worked out at 12.1 min; in data set [3] (setting [6]) it was 9.32 min.
On the same counts, the results for `OC[C@@H](O)[C@H](O)[C@H](O)[C@@H](O)CO` [Galactitol] are 133.44 Å², 140.03 Å², 4.84 min and 5.56 min.
On the same counts, the results for `CCCCCCCCCCCCCCCCCCCCCC(=O)O` [Behenic acid] are 197.18 Å², 204.26 Å², 0.73 min and 0.82 min.
On the same counts, the results for `CCCCCCC(=O)O` [Heptanoic acid] are 135.55 Å², 134.35 Å², 0.9 min and 0.77 min.
In data set [2], `OC[C@H]1O[C@@H](O)[C@H](O)[C@@H](O)[C@@H]1O` [D-glucose] came in with a collision cross section of 143.24 Å². The “retention time on BEH HILIC column” value in data set [3] (setting [6]) was determined as 3.88 min.
For `OC[C@@H](O)[C@H](O)[C@@H](O)CO` [D-xylitol], the collision cross section in data set [1] was 128.01 Å²; in data set [2], 133.34 Å². The “retention time on BEH HILIC column” value in data set [3] (setting [5]) and in data set [3] (setting [6]) was 3.16 min in each case.
For the molecule `CCCCCCCCCC(=O)O` [Capric acid], the collision cross section in data set [1] is on record as 151.28 Å²; in data set [2], 143.53 Å². In addition, the “retention time on BEH HILIC column” value in data set [3] (setting [5]) and in data set [3] (setting [6]) was 0.75 min throughout.
In the case of `COc1cc(/C=C/C(=O)O)ccc1O` [trans-ferulic acid], the collision cross section turned out to be 143.64 Å² in data set [1] and 161.96 Å² in data set [2]. Also, the “retention time on BEH HILIC column” value in data set [3] (setting [5]) stood at 0.9 min; in data set [3] (setting [6]), 0.93 min.
Turning to `CCOC(=O)CC(C)C(=O)OCC` (stereo not given) [Diethyl methylsuccinate], the collision cross section in data set [1] is 139.96 Å²; in data set [2], 151.23 Å². The “retention time on BEH HILIC column” value was found to be 0.95 min in data set [3] (setting [5]) and 0.75 min in data set [3] (setting [6]).
Turning to `O=C(O)/C=C(/CC(=O)O)C(=O)O` [cis-aconitic], the collision cross section in data set [1] is listed as 126.73 Å²; in data set [2], 139.19 Å². The figures for the “retention time on BEH HILIC column” value in data set [3] (setting [5]) and in data set [3] (setting [6]) were 2.8 min and 2.24 min, respectively.
Turning to `O=C(O)c1ccc(CO)o1` [Sumiki's acid], the collision cross section in data set [1] came out at 128.72 Å²; in data set [2], 129.97 Å². Also, the “retention time on BEH HILIC column” value is 3.07 min in data set [3] (setting [5]) and 3.12 min in data set [3] (setting [6]).
`OC[C@@H](O)[C@@H](O)CO` [Erythritol] displayed a collision cross section in data set [2] of 128.38 Å². For the same molecule, the “retention time on BEH HILIC column” value in data set [3] (setting [6]) was 2.08 min.
With `CC(=O)Oc1ccc(O)cc1` [4-hydroxyphenyl acetate], the collision cross section in data set [1] was determined as 129.47 Å²; in data set [2], 138.25 Å². Also, the figures for the “retention time on BEH HILIC column” value in data set [3] (setting [5]) and in data set [3] (setting [6]) were 0.67 min and 0.88 min, respectively.
Take `CCCCCC(=O)O` [Caproic acid]: the collision cross section stood at 129.59 Å² in data set [1] and 130.13 Å² in data set [2]. Further, the entries for the “retention time on BEH HILIC column” value in data set [3] (setting [5]) and in data set [3] (setting [6]) were 0.9 min and 1.25 min, respectively.
`O[C@H]1[C@H](O)[C@H](O)OC[C@H]1O` [D-arabinose] registered a collision cross section in data set [2] of 131.78 Å². In data set [3] (setting [6]), the “retention time on BEH HILIC column” value was 2.28 min.
`OC[C@@]1(O)OC[C@@H](O)[C@H](O)[C@@H]1O` [D-tagalose] displayed a collision cross section in data set [2] of 136.93 Å². Moreover, the “retention time on BEH HILIC column” value in data set [3] (setting [6]) came to 3.02 min.
For the molecule `NC(=O)NC1NC(=O)NC1=O` (stereo not given) [Allantoin], the collision cross section is 126.16 Å² in data set [1] and 136.32 Å² in data set [2]. Moreover, the results for the “retention time on BEH HILIC column” value in data set [3] (setting [5]) and in data set [3] (setting [6]) were 1.8 min and 1.56 min, respectively.
Molecule `O=C(O)C(CO)c1ccccc1` (stereo not given) [Tropate] showed a collision cross section in data set [2] of 140.74 Å². Further, in data set [3] (setting [6]), the “retention time on BEH HILIC column” value stood at 1.08 min.
Take `CCCCCCCCCCCCCCCCCC(=O)O` [Stearic acid]: the results for the collision cross section in data set [1] and in data set [2] were 184.42 Å² and 186.65 Å², respectively. For the same molecule, the figures for the “retention time on BEH HILIC column” value in data set [3] (setting [5]) and in data set [3] (setting [6]) were 0.73 min and 0.75 min, respectively.
As for `OC[C@H]1O[C@H](O)[C@H](O)[C@@H](O)[C@H]1O` [D-galactose], the collision cross section in data set [2] is reported as 138.53 Å². Besides, the “retention time on BEH HILIC column” value in data set [3] (setting [6]) was found to be 4.2 min.
`OC[C@H]1O[C@](O)(CO)[C@@H](O)[C@@H]1O` [D-fructose] showed a collision cross section in data set [2] of 140.11 Å². Also, the “retention time on BEH HILIC column” value in data set [3] (setting [6]) turned out to be 3.49 min.
In the case of `O=C(O)CC(O)c1cccc(O)c1` (stereo not given) [3-(3-hydroxyphenyl)-3-hydroxypropanoic acid], the collision cross section is given as 138.92 Å² in data set [1] and 146.99 Å² in data set [2].
Consider `OC1OC[C@@H](O)[C@H](O)[C@H]1O` (stereo partly drawn) [D-xylose], for which, in data set [2], the collision cross section was found to be 131.78 Å². Further, in data set [3] (setting [6]), the “retention time on BEH HILIC column” value was 2 min.
In turn, `O=C[C@H](O)[C@H](O)[C@H](O)[C@@H](O)CO` [L-talose] returned a collision cross section in data set [2] of 135.32 Å². Moreover, the “retention time on BEH HILIC column” value in data set [3] (setting [6]) came to 3.25 min.
As to `N[C@@H](CCC(=O)N[C@@H](CS)C(=O)NCC(=O)O)C(=O)O` [Glutathione], the values for the collision cross section in data set [1] and in data set [4] were 166.5 Å² and 166.01 Å², respectively. Also, the “retention time on BEH HILIC column” value in data set [3] (setting [5]) is 9.37 min; in data set [3] (setting [6]), 9.46 min.
`NCCC[C@H](N)C(=O)O` [Ornithine]: the collision cross section in data set [1] came out at 129.53 Å²; in data set [4], 129.31 Å². Besides, the “retention time on BEH HILIC column” value is 11.2 min in data set [3] (setting [5]) and 11.1 min in data set [3] (setting [6]).
